ChEMBL document CHEMBL5241054, “Effective anti-aromatase therapy to battle against estrogen-mediated breast cancer: Comparative SAR/QSAR assessment on steroidal aromatase inhibitors” (Eur J Med Chem, 2020)

Target: T1, Aromatase (Homo sapiens, UniProt P11511)
T1 sequence (P11511 whole entry): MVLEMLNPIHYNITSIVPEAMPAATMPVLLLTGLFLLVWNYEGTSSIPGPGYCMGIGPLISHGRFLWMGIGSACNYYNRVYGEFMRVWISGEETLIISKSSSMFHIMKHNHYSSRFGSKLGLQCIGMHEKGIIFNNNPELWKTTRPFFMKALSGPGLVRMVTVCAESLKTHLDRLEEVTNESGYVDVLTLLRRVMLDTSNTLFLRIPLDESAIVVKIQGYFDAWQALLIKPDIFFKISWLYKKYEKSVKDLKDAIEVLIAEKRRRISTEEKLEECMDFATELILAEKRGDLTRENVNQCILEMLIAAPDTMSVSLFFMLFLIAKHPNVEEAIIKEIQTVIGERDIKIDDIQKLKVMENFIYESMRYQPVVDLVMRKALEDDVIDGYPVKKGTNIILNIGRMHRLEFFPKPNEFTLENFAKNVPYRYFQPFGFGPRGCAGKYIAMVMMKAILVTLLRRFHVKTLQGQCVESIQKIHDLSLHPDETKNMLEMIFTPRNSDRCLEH

SMILES	IC50 [µM]
C[C@]12C[C@@H](CCCCc3ccccc3)C(=O)C=C1CC[C@@H]1[C@@H]2CC[C@]2(C)C(=O)CC[C@@H]12	222
C[C@]12C=CC(=O)C(Sc3ccccc3)=C1CC[C@@H]1[C@@H]2CC[C@]2(C)C(=O)CC[C@@H]12	0.5
C[C@]12CCC(=O)C=C1CC[C@@H]1[C@@H]2CC[C@]2(C)C(=O)CC[C@@H]12 [ANDROSTENEDIONE]	1
C[C@]12CCC(=O)C=C1C[C@@H](CCc1ccccc1)[C@@H]1[C@@H]2CC[C@]2(C)C(=O)CC[C@@H]12	0.138
C[C@]12CCC(=O)c3nn(Cc4ccccc4)c(c31)C[C@@H]1[C@@H]2CC[C@]2(C)C(=O)CC[C@@H]12	0.245
C[C@]12CCC(=O)C(O)=C1C(=O)C[C@@H]1[C@@H]2CC[C@]2(C)C(=O)CC[C@@H]12	0.46
C=C[C@]12CCC(=O)C=C1CC[C@@H]1[C@@H]2CC[C@]2(C)C(=O)CC[C@@H]12	0.1
C[C@]12C=CC(=O)C=C1C(CCCc1ccccc1)=C[C@@H]1[C@@H]2CC[C@]2(C)C(=O)CC[C@@H]12	0.35
CCO[C@@H]1C[C@@H]2[C@H](CC[C@]3(C)C(=O)CC[C@@H]23)c2ccc(O)cc21	83.9
CCC[C@H]1C[C@@H]2[C@H](CC[C@]3(C)C(=O)CC[C@@H]23)[C@@]2(C)CCC(=O)C=C12	0.39
C[C@]12CC[C@H]3[C@@H](CCC4=C(O)C(=O)CC[C@@]43C(F)F)[C@@H]1CCC2=O	2.5
C[C@]12CCC(=O)C=C1[C@@H](CCCCc1ccccc1)C[C@@H]1[C@@H]2CC[C@]2(C)C(=O)CC[C@@H]12	340
C[C@H]1C[C@@H]2[C@H](CC[C@]3(C)C(=O)CC[C@@H]23)[C@@]2(C)CCC(=O)C=C12	0.35
C[C@]12CC[C@H]3[C@@H](CCC4=CC(=O)CC[C@@]43CBr)[C@@H]1CCC2=O	1.4
CCCCCC[C@@H]1C[C@@H]2[C@H](CC[C@]3(C)C(=O)CC[C@@H]23)[C@@]2(C)C=CC(=O)C=C12	0.076
C[C@]12CCC(=O)c3nn(Cc4cccc([N+](=O)[O-])c4)c(c31)C[C@@H]1[C@@H]2CC[C@]2(C)C(=O)CC[C@@H]12	0.49
C[C@]12CC[C@@H]3c4ccc(O)cc4[C@@H](Cc4ccccc4)C[C@H]3[C@@H]1CCC2=O	3.5
CCCCCC1=C[C@@]2(C)C(=CC1=O)CC[C@@H]1[C@@H]2CC[C@]2(C)C(=O)CC[C@@H]12	0.743
C[C@]12CCC(=O)c3c1c(nn3C/C=C/c1ccccc1)C[C@@H]1[C@@H]2CC[C@]2(C)C(=O)CC[C@@H]12	0.899
C[C@]12C=CC(=O)C(Sc3ccccc3)=C1C=C[C@@H]1[C@@H]2CC[C@]2(C)C(=O)CC[C@@H]12	0.065
CCCCC1C[C@H]2[C@@H]3CC[C@H](O)[C@@]3(C)CC[C@@H]2[C@@]2(C)CCC(=O)C=C12 (stereo partly specified)	0.048
C[C@]12CCC=CC1=CC(=O)[C@@H]1[C@@H]2CC[C@]2(C)C(O)CC[C@@H]12 (stereo partly specified)	42

SMILES	IC50 [µM]
C[C@]12C=C(CCc3ccc(C(F)(F)F)cc3)C(=O)C=C1CC[C@@H]1[C@@H]2CC[C@]2(C)C(=O)CC[C@@H]12	34.1
COC1=C2CC[C@@H]3[C@H](CC[C@]4(C)C(=O)CC[C@@H]34)[C@@]2(C)CCC1=O	7.19
C[C@]12CC[C@H]3[C@@H](C=CC4=CC(=O)C=C[C@@]43CCl)[C@@H]1CCC2=O	1.33
C[C@]12CCC(=O)C(F)=C1CC[C@@H]1[C@@H]2CC[C@]2(C)C(=O)CC[C@@H]12	0.48
C[C@]12CC[C@H]3[C@@H](CCC4=CC(=O)CC[C@@]43C)[C@@H]1C[C@@H](O)[C@@H]2O	899
C[C@]12CC[C@H]3[C@@H](CC(=O)C4=CC(=O)CC[C@@]43C)[C@@H]1CC[C@@H]2OC(=O)CBr	42
CCCCCCCC1=C[C@@H]2[C@H](CC[C@]3(C)C(=O)CC[C@@H]23)[C@@]2(C)CCC(=O)C=C12	0.43
CCCCC[C@@H]1C[C@@H]2[C@H](CC[C@]3(C)C(=O)CC[C@@H]23)[C@@]2(C)CCC(=O)C=C12	0.23
CC1(C)C[C@@]2(C)C(=CC1=O)[C@H](Br)C[C@@H]1[C@@H]2CC[C@]2(C)C(=O)CC[C@@H]12	0.11
C#CC[C@]12CCC(=O)C=C1CC[C@@H]1[C@@H]2CC[C@]2(C)C(=O)CC[C@@H]12 [PLOMESTANE]	1
C[C@]12C=CC(=O)C=C1C[C@@H](CCCc1ccc(N)cc1)[C@@H]1[C@@H]2CC[C@]2(C)C(=O)CC[C@@H]12	0.158
C[C@]12CCC(=O)C=C1C(CCCCc1ccccc1)=C[C@@H]1[C@@H]2CC[C@]2(C)C(=O)CC[C@@H]12	0.28
C[C@]12C[C@@H](CCc3ccccc3)C(=O)C=C1CC[C@@H]1[C@@H]2CC[C@]2(C)C(=O)CC[C@@H]12	126
C[C@]12CCC(=O)C=C1[C@@H](Cc1ccccc1)C[C@@H]1[C@@H]2CC[C@]2(C)C(=O)CC[C@@H]12	0.661
C[C@]12CCC(=O)C=C1[C@H](N=[N+]=[N-])C(O)[C@@H]1[C@@H]2CC[C@]2(C)C(=O)CC[C@@H]12 (stereo partly specified)	47
CCCCCCC1=C[C@@H]2[C@H](CC[C@]3(C)C(=O)CC[C@@H]23)[C@@]2(C)CCC(=O)C=C12	0.2
CC1(C)C[C@@]2(C)C(=CC1=O)[C@@H](Br)C[C@@H]1[C@@H]2CC[C@]2(C)C(=O)CC[C@@H]12	0.1
C[C@]12CC[C@@H]3c4ccc(O)cc4[C@H](c4ccccc4)C[C@H]3[C@@H]1CC[C@@H]2O	129
C[C@@H]1C[C@@H]2[C@H](CC[C@]3(C)C(O)CC[C@@H]23)[C@@]2(C)CCCC=C12 (stereo partly specified)	3.7
CO[C@@H]1C[C@@H]2[C@H](CC[C@]3(C)C(=O)CC[C@@H]23)[C@@]2(C)CCCC=C12	0.05
C[C@]12CCC(=O)C=C1C(CCCCCc1ccccc1)=C[C@@H]1[C@@H]2CC[C@]2(C)C(=O)CC[C@@H]12	0.3
CCCCC[C@@H]1C[C@@]2(C)C(=CC1=O)CC[C@@H]1[C@@H]2CC[C@]2(C)C(=O)CC[C@@H]12	1.28

SMILES	IC50 [µM]
C[C@]12CCC(=O)C=C1[C@H](Cc1ccccc1)C[C@@H]1[C@@H]2CC[C@]2(C)C(=O)CC[C@@H]12	4
CCCCC1=C[C@@H]2[C@H](CC[C@]3(C)C(=O)CC[C@@H]23)[C@@]2(C)C=CC(=O)C=C12	0.25
C[C@]12CC[C@H]3[C@@H](C[C@H]4O[C@]45C(=O)CCC[C@]35C)C1CCC2=O (stereo partly specified)	12.5
C[C@]12C=CC(=O)C=C1[C@H](Cc1ccccc1)C[C@@H]1[C@@H]2CC[C@]2(C)C(=O)CC[C@@H]12	0.59
C[C@]12CC[C@H]3[C@@H](C(=O)C=C4C=CCC[C@@]43C=O)[C@@H]1CCC2=O	11
C[C@]12CCC(=O)C=C1[C@@H](O)C[C@@H]1[C@@H]2CC[C@]2(C)C(=O)CC[C@@H]12	15
CCC[C@@H]1C[C@@H]2[C@H](CC[C@]3(C)C(=O)CC[C@@H]23)[C@@]2(C)CCCC=C12	0.44
CC[C@@H]1C[C@@H]2[C@H](CC[C@]3(C)C(=O)CC[C@@H]23)[C@@]2(C)CCCC=C12	0.32
C[C@]12CCC(=O)C=C1[C@@H](c1ccccc1)C[C@@H]1[C@@H]2CC[C@]2(C)C(=O)CC[C@@H]12	1.1
C[C@]12C=CC(=O)C=C1[C@H](c1ccccc1)C[C@@H]1[C@@H]2CC[C@]2(C)C(=O)CC[C@@H]12	0.53
C[C@]12CCC(=O)C=C1C(=O)[C@@H](O)[C@@H]1[C@@H]2CC[C@]2(C)C(=O)CC[C@@H]12	11
C[C@]12C=CC(=O)C=C1[C@@H](CCCCc1ccccc1)C[C@@H]1[C@@H]2CC[C@]2(C)C(=O)CC[C@@H]12	0.23
C[C@]12CCC(=O)C=C1C(c1ccccc1)=C[C@@H]1[C@@H]2CC[C@]2(C)C(=O)CC[C@@H]12	0.2
CCC[C@@H]1C[C@@H]2[C@H](CC[C@]3(C)C(=O)CC[C@@H]23)[C@@]2(C)C=CC(=O)C=C12	0.06
CCCCCCC1=C[C@@]2(C)C(=CC1=O)CC[C@@H]1[C@@H]2CC[C@]2(C)C(=O)CC[C@@H]12	0.298
CC(=O)O[C@H]1C2=CC(=O)CC[C@]2(C)[C@H]2CC[C@]3(C)C(=O)CC[C@H]3[C@@H]2C1N=[N+]=[N-] (stereo partly specified)	23.1
CCC[C@@H]1C[C@@H]2[C@H](CC[C@]3(C)C(=O)CC[C@@H]23)[C@@]2(C)CCC(=O)C=C12	0.24
CC(=O)OC1=C2CC[C@@H]3[C@H](CC[C@]4(C)C(=O)CC[C@@H]34)[C@@]2(C)CCC1=O	1.5
COC1=C2C(=O)C[C@@H]3[C@H](CC[C@]4(C)C(=O)CC[C@@H]34)[C@@]2(C)CCC1=O	2
C[C@]12CCC(=O)C=C1[C@H](CCc1ccccc1)C[C@@H]1[C@@H]2CC[C@]2(C)C(=O)CC[C@@H]12	1050
C[C@]12CC[C@H]3[C@@H](CCC4=CC(=O)C=C[C@@]43CBr)[C@@H]1CCC2=O	1
CCCC1=C[C@@H]2[C@H](CC[C@]3(C)C(=O)CC[C@@H]23)[C@@]2(C)C=CC(=O)C=C12	0.1
